From US8236769B2, “Agent for improving insulin resistance” (Morinaga Milk Industry Co., Ltd., priority 2005, dated 2012)

Legend:
[1] = system: TNF-α; experiment: Production quantity of TNF-α of epididymal adipose tissue from treated ZDF rats (culture supernatant, ELISA); assay type: in vivo, rat; conditions: 45th day
Method: (§1) In Example 2, the same Test Sample and the negative sample as those prepared in Example 1 were used.
(§2) After 1 hour of the culture, culture supernatants were collected, and concentrations of TNF-α and MCP-1 in the culture supernatants were measured by ELISA method (Biosource).

[2] = system: MCP-1; experiment: Production quantity of MCP-1 of epididymal adipose tissue from treated ZDF rats (culture supernatant, ELISA); assay type: in vivo, rat; conditions: 45th day
Method: as §1, §2

[3] = system: ZDF (Zucker Diabetic Fatty) rats; experiment: Insulin tolerance test in ZDF rats; assay type: in vivo, rat; conditions: 35th day; 37.5 μg/kg orally once a day; human insulin 10 U/Kg i.p. after 4 hours fasting; 15 to 60 minutes after insulin; FIG. 1
Method: In Example 3, the same Test Sample and the negative sample as those prepared in Examples 1 and 2 were used.
The semice were divided into groups, each consisting of 6 rats. […] In the present example, the insulin tolerance test was performed in such a manner that: the rats were fasted for 4 hours, and were then intraperitoneally administered with 10 U/Kg of body weight of a human insulin (Eli Lily and Company); and changes with time in blood glucose level were measured from the initiation of the administration of the insulin to after 60 minutes later.

[4] = system: ZDF (Zucker Diabetic Fatty) rats; conditions: serum
Method: 3-O-β-D-glucopyranosyl-4-methylergost-7-en-3-ol produced in Preparation Example 1 was dissolved in DMSO, and the concentration was adjusted to 15 μg/ml with distilled water to thereby prepare Test Sample. In this case, the final DMSO concentration was adjusted to 0.2%. Furthermore, a solution without the test samples was prepared as a negative sample.
6-week-old male ZDF rats (purchased from Charles River Laboratories, Inc., USA) were preliminarily fed with a high-fat diet (Research Diet, Inc.) for 1 month. These rats were divided into groups, each consisting of 6 rats. Each of the groups of rats was orally administered with 1 ml per 400 g of body weight (37.5 μg/kg of body weight) of the Test Sample or the negative sample once a day everyday with a sonde. On the 45th day from the initiation of the administration of the samples, blood was collected from the rats under fasting, and the level of the free fatty acid in serum were measured by using NEFA C-test Wako (Wako Pure Chemical Industries, Ltd.).

[5] = WO 2006/035525; cited from earlier work
[6] = adipose tissue, Tukey-Kramer's test
[7] = culture supernatant of epididymal fat tissue after 1 hour at 37° C., 37.5 μg/kg orally once a day

CC1C(O[C@@H]2O[C@H](CO)[C@@H](O)[C@H](O)[C@H]2O)CC[C@@]2(C)C1CC=C1[C@@H]3CC[C@H]([C@H](C)CC[C@H](C)C(C)C)[C@@]3(C)CC[C@@H]12 (stereo partly drawn) [Test Sample, 3-O-β-D-glucopyranosyl-4-methylergost-7-en-3-ol]
inhibitory effect on the production of TNF-α compared with negative sample group [1, 6]: significant inhibitory effects
TNF-α [1, 7]: 117.4 ± 47.9 pg/mL
inhibitory effect on the production of MCP-1 compared with negative sample group [2, 6]: significant inhibitory effects
MCP-1 [2, 7]: 23.3 ± 3.6 pg/mL
blood glucose level in insulin tolerance test compared with negative sample group [3]: lower blood glucose levels
free fatty acid levels compared with the group administered with the negative sample ([4]; 45th day, 37.5 μg/kg orally once a day, decreased to this % of negative sample group): 53%
Free fatty acid ([4]; fasting, 45th day of administration, 37.5 μg/kg of body weight orally once a day, male ZDF rats on high-fat diet): 1.948 ± 0.648 mEq/l
effect on hemoglobin Alc level [5]: decreasing hemoglobin Alc level
effect on hyperglycemia [5]: improving hyperglycemia
